In patent US12281363B2, “Methods for detecting antiviral-drug resistant virus” (Secretary of State for Health and Social Care, priority 2018, dated 2025):
Read-outs that look alike come from different tables or passages of the source.

Test system: HSV-1
Experiment: Plaque reduction assay, HSV-1 clinical isolates on Vero cells
Format: cell-based
Settings: Human alphaherpesvirus 1, Vero
Excerpt: Viral isolates were used to infect a sub-confluent monolayer of Vero cells at a concentration of 75 or 50 plaque forming units (PFU) per well for HSV-1 and HSV-2, respectively. […] CMC medium typically used to create a semisolid interface and prevents indiscrimate viral spreading. Other materials (e.g. agar) may also be used to create this interface.
Cells were fixed with 10% formalin and stained with crystal violet before enumeration of the plaques (microscopic observation or use of fluorescent antibodies for detection is also suitable). The data obtained from these experiments were then expressed as percent inhibition of viral infectivity relative to the no drug control.
Definitions of phenotypic drug susceptibility classification as sensitive or resistant were as follows: ACV, <3 μM or >40 μM; PCV, <10 μM or >40 μM; CDV, <24 μM or >30 μM; FOS, <250 μM or >400 μM; and ACV, <6.5 μM or >40 μM; PCV, <38 μM or >40 μM; FOS, <250 μM or >400 μM for HSV-1 and HSV-2, respectively. Any IC50 values falling in between these sensitive and resistant cut-offs were reported as intermediate resistance.
The phenotype (i.e. reactivity to a drug) of the virus was characterised by the plaque reduction assay as described above.

SMILES: O=C(O)P(=O)(O)O [Foscarnet, foscarnet]
- IC50 (72 h, isolate HPG053, HSV-1 pol L802R + A834S (2405T>G, 2500G>T), also TK R176W, read-out: Drug susceptibility (IC50 value)): 626 µM
- IC50 (isolate HPG002, HSV-1 pol E992K (2974G>A), also TK insert (G) nt 430-436, pol A1169T, read-out: Drug susceptibility (IC50 value)): < 50 µM
- IC50 (isolate HPG002, HSV-1 pol E992K (2974G>A), also TK insert (G) nt 430-436, pol A1169T, read-out: Drug susceptibility Foscarnet (FOS)): < 250 µM
- IC50 (isolate HPG003, HSV-1 TK Y172S (515A>C), read-out: Drug susceptibility (IC50 value)): 79 µM
- IC50 (isolate HPG003, HSV-1 TK Y172S (515A>C), read-out: Drug susceptibility Foscarnet (FOS)): < 250 µM
- IC50 (isolate HPG005, HSV-1 TK A37V (110C>T), read-out: Drug susceptibility (IC50 value)): 36.9 µM
- IC50 (isolate HPG005, HSV-1 TK A37V (110C>T), read-out: Drug susceptibility Foscarnet (FOS)): < 250 µM
- IC50 (isolate HPG008, HSV-1 TK V204G (611T>G), read-out: Drug susceptibility (IC50 value)): 58.3 µM
- IC50 (isolate HPG008, HSV-1 TK V204G (611T>G), read-out: Drug susceptibility Foscarnet (FOS)): < 250 µM
- IC50 (isolate HPG009, HSV-1 pol E992K (2974G>A), also pol A1169T, read-out: Drug susceptibility (IC50 value)): 77.5 µM
- IC50 (isolate HPG009, HSV-1 pol E992K (2974G>A), also pol A1169T, read-out: Drug susceptibility Foscarnet (FOS)): < 250 µM
- IC50 (isolate HPG010, HSV-1 TK Q125* (373C>T), read-out: Drug susceptibility (IC50 value)): 46.7 µM
- IC50 (isolate HPG010, HSV-1 TK Q125* (373C>T), read-out: Drug susceptibility Foscarnet (FOS)): < 250 µM
- IC50 (isolate HPG011, HSV-1 TK Q125* (373C>T), read-out: Drug susceptibility (IC50 value)): 56 µM
- IC50 (isolate HPG011, HSV-1 TK Q125* (373C>T), read-out: Drug susceptibility Foscarnet (FOS)): < 250 µM
- IC50 (isolate HPG013, HSV-1 TK M121I (363G>A), read-out: Drug susceptibility (IC50 value)): 78 µM
- IC50 (isolate HPG013, HSV-1 TK M121I (363G>A), read-out: Drug susceptibility Foscarnet (FOS)): < 250 µM
- IC50 (isolate HPG013, HSV-1 pol D83A (248A>C), also TK M121I, pol A1169T, read-out: Drug susceptibility (IC50 value)): 78 µM
- IC50 (isolate HPG013, HSV-1 pol D83A (248A>C), also TK M121I, pol A1169T, read-out: Drug susceptibility Foscarnet (FOS)): < 250 µM
- IC50 (isolate HPG014, HSV-1 pol A1115T (3343G>A), read-out: Drug susceptibility (IC50 value)): 141 µM
- IC50 (isolate HPG014, HSV-1 pol A1115T (3343G>A), read-out: Drug susceptibility Foscarnet (FOS)): < 250 µM
- IC50 (isolate HPG014, HSV-1 pol R993C (2977C>T), read-out: Drug susceptibility (IC50 value)): 141 µM
- IC50 (isolate HPG014, HSV-1 pol R993C (2977C>T), read-out: Drug susceptibility Foscarnet (FOS)): < 250 µM
- IC50 (isolate HPG014, HSV-1 pol T54A (160A>G), read-out: Drug susceptibility (IC50 value)): 141 µM
- IC50 (isolate HPG014, HSV-1 pol T54A (160A>G), read-out: Drug susceptibility Foscarnet (FOS)): < 250 µM
- IC50 (isolate HPG015, HSV-1 pol 966stop or F965_I966insF (2892_2893insT to 2895_2896insT), read-out: Drug susceptibility (IC50 value)): 162 µM
- IC50 (isolate HPG015, HSV-1 pol 966stop or F965_I966insF (2892_2893insT to 2895_2896insT), read-out: Drug susceptibility Foscarnet (FOS)): < 250 µM
- IC50 (isolate HPG018, HSV-1 TK frameshift (881delC to 885delC), read-out: Drug susceptibility (IC50 value)): 66.7 µM
- IC50 (isolate HPG018, HSV-1 TK frameshift (881delC to 885delC), read-out: Drug susceptibility Foscarnet (FOS)): < 250 µM
- IC50 (isolate HPG018, HSV-1 pol P1199T (3595C>A), also TK deletion (C) nt 881-885, pol A1169T, read-out: Drug susceptibility (IC50 value)): 66.7 µM
- IC50 (isolate HPG018, HSV-1 pol P1199T (3595C>A), also TK deletion (C) nt 881-885, pol A1169T, read-out: Drug susceptibility Foscarnet (FOS)): < 250 µM
- IC50 (isolate HPG019, HSV-1 pol K750T (2249A>C), also TK deletion (G) nt 430-436, pol A1169T, read-out: Drug susceptibility (IC50 value)): 190 µM
- IC50 (isolate HPG019, HSV-1 pol K750T (2249A>C), also TK deletion (G) nt 430-436, pol A1169T, read-out: Drug susceptibility Foscarnet (FOS)): < 250 µM
- IC50 (isolate HPG020, HSV-1 pol S911N (2732G>A), also pol A1169T, read-out: Drug susceptibility (IC50 value)): 99.3 µM
- IC50 (isolate HPG020, HSV-1 pol S911N (2732G>A), also pol A1169T, read-out: Drug susceptibility Foscarnet (FOS)): < 250 µM
- IC50 (isolate HPG021, HSV-1 pol R681Q (2042G>A), also TK deletion (G) nt 430-436, read-out: Drug susceptibility (IC50 value)): 156 µM
- IC50 (isolate HPG021, HSV-1 pol R681Q (2042G>A), also TK deletion (G) nt 430-436, read-out: Drug susceptibility Foscarnet (FOS)): < 250 µM
- IC50 (isolate HPG021, HSV-1 pol T839A (2515A>G), also TK deletion (G) nt 430-436, read-out: Drug susceptibility (IC50 value)): 156 µM
- IC50 (isolate HPG021, HSV-1 pol T839A (2515A>G), also TK deletion (G) nt 430-436, read-out: Drug susceptibility Foscarnet (FOS)): < 250 µM
- IC50 (isolate HPG025, HSV-1 pol E850Q (2548G>C), also TK R216C, read-out: Drug susceptibility (IC50 value)): 99.1 µM
- IC50 (isolate HPG025, HSV-1 pol E850Q (2548G>C), also TK R216C, read-out: Drug susceptibility Foscarnet (FOS)): < 250 µM
- IC50 (isolate HPG026, HSV-1 pol E850Q (2548G>C), also TK R216C, pol A1169T, read-out: Drug susceptibility (IC50 value)): 68.3 µM
- IC50 (isolate HPG026, HSV-1 pol E850Q (2548G>C), also TK R216C, pol A1169T, read-out: Drug susceptibility Foscarnet (FOS)): < 250 µM
- IC50 (isolate HPG027, HSV-1 TK V204G (611T>G), also pol S914L, A1169AT, read-out: Drug susceptibility (IC50 value)): 216 µM
- IC50 (isolate HPG027, HSV-1 TK V204G (611T>G), also pol S914L, A1169AT, read-out: Drug susceptibility Foscarnet (FOS)): < 250 µM
- IC50 (isolate HPG027, HSV-1 pol S914L (2741C>T), also TK V204G, pol A1169T, read-out: Drug susceptibility (IC50 value)): 216 µM
- IC50 (isolate HPG027, HSV-1 pol S914L (2741C>T), also TK V204G, pol A1169T, read-out: Drug susceptibility Foscarnet (FOS)): < 250 µM
- IC50 (isolate HPG029, HSV-1 TK Y172S (515A>C), read-out: Drug susceptibility (IC50 value)): 111 µM
- IC50 (isolate HPG029, HSV-1 TK Y172S (515A>C), read-out: Drug susceptibility Foscarnet (FOS)): < 250 µM
- IC50 (isolate HPG031, HSV-1 pol E1120A (3359A>C), also a TK resistance mutation (footnote e), read-out: Drug susceptibility (IC50 value)): 108 µM
- IC50 (isolate HPG031, HSV-1 pol E1120A (3359A>C), also a TK resistance mutation (footnote e), read-out: Drug susceptibility Foscarnet (FOS)): < 250 µM
- IC50 (isolate HPG031, HSV-1 pol G139R (415G>C or 415G>A), also a TK resistance mutation (footnote e), read-out: Drug susceptibility (IC50 value)): 108 µM
- IC50 (isolate HPG031, HSV-1 pol G139R (415G>C or 415G>A), also a TK resistance mutation (footnote e), read-out: Drug susceptibility Foscarnet (FOS)): < 250 µM
- IC50 (isolate HPG032, HSV-1 TK 183* (437_438insA), read-out: Drug susceptibility (IC50 value)): 100 µM
- IC50 (isolate HPG032, HSV-1 TK 183* (437_438insA), read-out: Drug susceptibility Foscarnet (FOS)): < 250 µM
